Data reported in PubChem BioAssay AID1963868 (Molecular Pharmacology Branch, DTP, NCI, 2024).

System: KRAS PDC tumor spheroids (HUVEC+MSC), viability
Assay: Anticancer human tumor 254851-301-R-J1-PDC patient-derived colon carcinoma cell line growth inhibition [KRAS2]
Details: for IC50: curve of first compound; for viability, T/C: stronger effect = lower value
Method in brief: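 KRAS-mutant tumor cells were grown as spheroids with HUVEC endothelial cells and human MSCs as stroma. Targeted agents were tested alone and with KRAS pathway inhibitors. Doses started at or near clinical Cmax, or 10 microM, descending half-log.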
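Also: spheroids exposed to compounds for seven days before readout.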
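For viability, T/C in this document: 100% = DMSO vehicle control luminescence of the spheroids.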

`CC1(C)CCC(CN2CCN(c3ccc(C(=O)NS(=O)(=O)c4ccc(NCC5CCOCC5)c([N+](=O)[O-])c4)c(Oc4cnc5[nH]ccc5c4)c3)CC2)=C(c2ccc(Cl)cc2)C1` + CNCc1ccccc1-c1csc(C(C)Nc2nc(C)nc3cc(OC)c(OC)cc23)c1 was tested, and the IC50 (second compound 0.1 µM) was > 10 µM, the IC50 (second compound 0.316 µM) was > 10 µM and the IC50 (second compound 1 µM) was 3.12 µM. The IC50 (second compound 3.16 µM) was 1.11 µM, the IC50 (second compound 10 µM) was < 0.0316 µM and the viability, T/C (second compound 0.1 µM, first compound 0.0316 µM) was 100%. The viability, T/C (second compound 0.1 µM, first compound 0.1 µM) was 104%, the viability, T/C (second compound 0.1 µM, first compound 0.316 µM) was 100% and the viability, T/C (second compound 0.1 µM, first compound 1 µM) was 94.8%. The viability, T/C (second compound 0.1 µM, first compound 3.16 µM) was 94%, the viability, T/C (second compound 0.1 µM, first compound 10 µM) was 86% and the viability, T/C (second compound 0.316 µM, first compound 0.0316 µM) was 91.9%. The viability, T/C (second compound 0.316 µM, first compound 0.1 µM) was 102%, the viability, T/C (second compound 0.316 µM, first compound 0.316 µM) was 99.7% and the viability, T/C (second compound 0.316 µM, first compound 1 µM) was 100%. The viability, T/C (second compound 0.316 µM, first compound 3.16 µM) was 87.7%, the viability, T/C (second compound 0.316 µM, first compound 10 µM) was 81.2% and the viability, T/C (second compound 1 µM, first compound 0.0316 µM) was 93.3%. The viability, T/C (second compound 1 µM, first compound 0.1 µM) was 102%, the viability, T/C (second compound 1 µM, first compound 0.316 µM) was 92.9% and the viability, T/C (second compound 1 µM, first compound 1 µM) was 83.2%. For the same compound, the viability, T/C (second compound 1 µM, first compound 3.16 µM) was 49.6%, the viability, T/C (second compound 1 µM, first compound 10 µM) was 16.4% and the viability, T/C (second compound 3.16 µM, first compound 0.0316 µM) was 80.4%. For the same compound, the viability, T/C (second compound 3.16 µM, first compound 0.1 µM) was 75.1%, the viability, T/C (second compound 3.16 µM, first compound 0.316 µM) was 71.6% and the viability, T/C (second compound 3.16 µM, first compound 1 µM) was 55%. The viability, T/C (second compound 3.16 µM, first compound 3.16 µM) was 1.17%, the viability, T/C (second compound 3.16 µM, first compound 10 µM) was 0.61% and the viability, T/C (second compound 10 µM, first compound 0.0316 µM) was 0.17%. The viability, T/C (second compound 10 µM, first compound 0.1 µM) was 0.2%, the viability, T/C (second compound 10 µM, first compound 0.316 µM) was 0.17% and the viability, T/C (second compound 10 µM, first compound 1 µM) was 0.15%. It also gave a viability, T/C (second compound 10 µM, first compound 3.16 µM) of 0.12% and a viability, T/C (second compound 10 µM, first compound 10 µM) of 0.17%.
